Data published in US20230374038A1, “MODULATORS OF CYSTIC FIBROSIS TRANSMEMBRANE CONDUCTANCE REGULATOR” (VERTEX PHARMACEUTICALS INCORPORATED, priority 2020, published 2023).
Several values for one entry are separate records, joined by “and”; a condition that tells them apart may be missing. Equal entries are not always repeated. Where two headings read alike, the source gives them in different places.

Legend:
[1] = amide bond, DMF
CFTR [2] = molecular target: T1, CFTR (Homo sapiens, UniProt P13569); assay: Membrane Potential Dye, Enteroid Assay A; assay type: cell-based; conditions: for EC50: read-out: Ent. A EC50
Procedure: Base medium (ADF+++) consisted of Advanced DMEM/Ham's F12, 2 mM Glutamax, 10 mM HEPES, 1 µg/mL penicillin/streptomycin.
Intestinal enteroid maintenance medium (IEMM) consisted of ADF+++, 1× B27 supplement, 1× N2 supplement, 1.25 mM N-acetyl cysteine, 10 mM Nicotinamide, 50 ng/mL hEGF, 10 nM Gastrin, 1 pg/mL hR-spondin-1, 100 ng/mL hNoggin, TGF-b type 1 inhibitor A-83-01, 100 μg/mL Primocin, […] P38 MAPK inhibitor SB202190.
Bath 1 Buffer consisted of 1 mM MgCl2, 160 mM NaCl, 4.5 mM KCl, 10 mM HEPES, 10 mM Glucose, 2 mM CaCl2).
Chloride Free Buffer consisted of 1 mM Magnesium Gluconate, 2 mM Calcium Gluconate, 4.5 mM Potassium Gluconate, 160 mM Sodium Gluconate, 10 mM HEPES, 10 mM Glucose.
Bath1 Dye Solution consisted of Bath 1 Buffer, 0.04% Pluronic F127, […] Methyl Oxonol, 30 μM CaCCinh-A01, 30 μM Chicago Sky Blue.
Chloride Free Dye Solution consisted of Chloride Free Buffer, 0.04% Pluronic F127, 20 μM Methyl Oxonol, 30 μM CaCCinh-A01, 30 μM Chicago Sky Blue.
Chloride Free Dye Stimulation Solution consisted of Chloride Free Dye Solution, 10 μM forskolin, 100 μM IBMX, and 300 nM Compound III.
Human intestinal epithelial enteroid cells were obtained from the Hubrecht Institute for Developmental Biology and Stem Cell Research, Utrecht, The Netherlands and expanded in T-Flasks as previously described (Dekkers J F, Wiegerinck C L, de Jonge H R, Bronsveld I, Janssens H M, de Winter-de Groot K M, Brandsma A M, de Jong N W M, Bijvelds M J C, Scholte B J, Nieuwenhuis E E S, van den Brink S, Clevers H, van der Ent C K, Middendorp S and M Beekman J M. A functional CFTR assay using primary cystic fibrosis intestinal organoids. Nat Med. 2013 July; 19(7):939-45.).
Cells were recovered in cell recovery solution, collected by centrifugation at 650 rpm for 5 min at 4° C., resuspended in TryPLE and incubated for 5 min at 37° C. Cells were then collected by centrifugation at 650 rpm for 5 min at 4° C. and resuspended in IEMM containing 10 μM ROCK inhibitor (RI). The cell suspension was passed through a 40 μm cell strainer and resuspended at 1×10^6 cells/mL in IEMM containing 10 μM RI. Cells were seeded at 5000 cells/well into multi-well plates and incubated for overnight at 37° C., 95% humidity and 5% CO2 prior to assay.
Enteroid cells were incubated with test compound in IEMM for 18-24 hours at 37° C., 95% humidity and 5% CO2. […] Briefly, cells were washed 5 times in Bath 1 Buffer. Bath 1 Dye Solution was added, and the cells were incubated for 25 min at room temperature. Following dye incubation, cells were washed 3 times in Chloride Free Dye Solution. Chloride transport was initiated by addition of Chloride Free Dye Stimulation Solution and the fluorescence signal was read for 15 min. […] Chloride transport was then expressed as a percentage of the chloride transport following treatment with 3 μM (S)—N-((6-aminopyridin-2-yl)sulfonyl)-6-(3-fluoro-5-isobutoxyphenyl)-2-(2,2,4-trimethylpyrrolidin-1-yl)nicotinamide, 3 μM (R)-1-(2,2-difluorobenzo[d][1,3]dioxol-5-yl)-N-(1-(2,3-dihydroxypropyl)-6-fluoro-2-(1-hydroxy-2-methylpropan-2-yl)-1H-indol-5-yl)cyclopropanecarboxamide and 300 nM acute N-[2,4-bis(1,1-dimethylethyl)-5-hydroxyphenyl]-1,4-dihydro-4-oxoquinoline-3-carboxamide triple combination control (% Activity).

CFTR [3] = molecular target: T1, CFTR; assay: Membrane Potential Dye, Enteroid Assay B; assay type: cell-based; conditions: for EC50: read-out: Ent. B EC50
Outline: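 Human intestinal enteroids seeded at 5000 cells/well, treated with compound 18-24 h at 37 °C, then loaded 25 min with methyl oxonol membrane-potential dye plus CaCC blockers. Chloride transport started in chloride-free buffer with 10 μM forskolin, 100 μM IBMX and 300 nM Compound III, read 15 min; expressed as % of triple-combination control.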

T1 sequence (P13569 with tags, fused parts or gaps DEL508-508): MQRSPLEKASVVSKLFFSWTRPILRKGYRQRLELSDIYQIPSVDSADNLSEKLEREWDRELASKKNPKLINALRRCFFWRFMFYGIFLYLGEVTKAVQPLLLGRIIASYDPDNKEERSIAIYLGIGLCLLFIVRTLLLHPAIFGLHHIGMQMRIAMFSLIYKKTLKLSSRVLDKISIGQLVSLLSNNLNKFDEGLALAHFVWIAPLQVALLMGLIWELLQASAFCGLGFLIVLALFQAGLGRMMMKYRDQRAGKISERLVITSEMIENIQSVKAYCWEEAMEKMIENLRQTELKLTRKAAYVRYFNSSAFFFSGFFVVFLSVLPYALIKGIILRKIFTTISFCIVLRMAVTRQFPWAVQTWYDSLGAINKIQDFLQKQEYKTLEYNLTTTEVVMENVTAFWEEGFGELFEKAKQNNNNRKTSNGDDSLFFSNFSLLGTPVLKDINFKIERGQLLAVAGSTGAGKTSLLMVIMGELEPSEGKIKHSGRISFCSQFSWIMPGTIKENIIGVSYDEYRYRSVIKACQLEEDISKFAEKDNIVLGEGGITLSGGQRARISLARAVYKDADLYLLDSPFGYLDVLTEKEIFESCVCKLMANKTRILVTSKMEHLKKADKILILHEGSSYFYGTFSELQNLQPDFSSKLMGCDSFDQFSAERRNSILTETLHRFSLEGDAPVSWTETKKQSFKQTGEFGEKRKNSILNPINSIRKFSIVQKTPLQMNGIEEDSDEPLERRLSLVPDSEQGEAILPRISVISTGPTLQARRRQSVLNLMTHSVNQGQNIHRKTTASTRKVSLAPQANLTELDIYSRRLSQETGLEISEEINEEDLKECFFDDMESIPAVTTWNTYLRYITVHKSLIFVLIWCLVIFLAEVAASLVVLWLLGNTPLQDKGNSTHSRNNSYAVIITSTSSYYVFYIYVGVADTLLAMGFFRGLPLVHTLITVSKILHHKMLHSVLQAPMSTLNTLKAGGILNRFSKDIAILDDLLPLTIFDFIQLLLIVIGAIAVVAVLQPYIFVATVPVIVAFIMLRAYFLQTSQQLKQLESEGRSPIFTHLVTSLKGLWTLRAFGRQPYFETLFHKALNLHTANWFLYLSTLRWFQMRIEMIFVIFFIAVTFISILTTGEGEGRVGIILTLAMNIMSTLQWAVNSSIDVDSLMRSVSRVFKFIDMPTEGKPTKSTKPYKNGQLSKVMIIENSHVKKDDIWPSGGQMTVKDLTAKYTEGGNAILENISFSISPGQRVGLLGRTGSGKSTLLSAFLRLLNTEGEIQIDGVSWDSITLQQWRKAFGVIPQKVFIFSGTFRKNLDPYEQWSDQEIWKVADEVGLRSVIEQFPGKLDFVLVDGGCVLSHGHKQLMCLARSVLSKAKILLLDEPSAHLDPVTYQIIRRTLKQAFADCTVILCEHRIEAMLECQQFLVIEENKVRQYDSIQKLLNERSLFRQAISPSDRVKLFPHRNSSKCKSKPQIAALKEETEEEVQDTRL

Row | Ent. A Max Activity (CFTR [2]) | EC50 (CFTR [2]) [µM] | Ent. B Max Activity (CFTR [3]) | EC50 (CFTR [3]) [µM] | Molecule | other results
1 |  |  |  |  | (5P,11R)-11-(2,2-dimethylpropyl)-7-methyl-6-[2-methyl-6-(3-methylbutyl)phenyl]-12-{[5-(propan-2-yloxy)pyrimidin-2-yl]methyl}-9-oxa-2λ^6-thia-3,5,12,19-tetraazatricyclo[12.3.1.14,8]nonadeca-1(17),4(19),5,7,14(18),15-hexaene-2,2,13-trione | ring closure, yield after HPLC ([1]; 13-membered ring, CDMT/NMM, 33.8 mM): 45%
2 | +++ (+++ is >60%) | < 1 | +++ (+++ is >60%) | < 1 | CCc1c2nc(nc1-c1c(C)cccc1C)NS(=O)(=O)c1cccc(c1)C(=O)N(C1CC3(CCN(C(=O)OC(C)(C)C)CC3)C1)[C@H](CC(C)C)CO2 [Compound 158, tert-butyl 2-[(11R)-6-(2,6-dimethylphenyl)-7-ethyl-11-isobutyl-2,2,13-trioxo-9-oxa-2λ^6-thia-3,5,12,19-tetrazatricyclo[12.3.1.14,8]nonadeca-1(17),4(19),5,7,14(18),15-hexaen-12-yl]-7-azaspiro[3.5]nonane-7-carboxylate] | 
3 |  |  |  |  | (5P,11R)-11-(2,2-dimethylpropyl)-12-({5-[(2,2-dimethylpropyl)(methyl)amino]pyrimidin-2-yl}methyl)-7-methyl-6-[2-methyl-6-(2-methylpropyl)phenyl]-9-oxa-2λ^6-thia-3,5,12,19-tetraazatricyclo[12.3.1.14,8]nonadeca-1(17),4(19),5,7,14(18),15-hexaene-2,2,13-trione | ring closure, yield after HPLC ([1]; 13-membered ring, CDMT/NMM, 19.0 mM, 2 steps): 11%
4 |  |  |  |  | Cc1cccc(C)c1-c1nc2nc(c1C)OC[C@@H](CC(C)(C)C)N(C1CC3(CC(NC(=O)OC(C)(C)C)C3)C1)C(=O)c1cccc(c1)S(=O)(=O)N2 (stereo partly drawn) | ring closure, yield after HPLC ([1]; from Cc1cccc(C)c1-c1nc(NS(=O)(=O)c2cccc(C(=O)O)c2)nc(OC[C@@H](CC(C)(C)C)NC2CC3(CC(NC(=O)OC(C)(C)C)C3)C2)c1C, 13-membered ring, HATU/DIEA, 14.3 mM, 72.0 h): 62%
5 |  |  |  |  | Cc1cccc(C)c1-c1nc2nc(c1C)OC[C@@H](CC(C)(C)C)N(C1CC3(C1)CC(C(C)(C)O)C3)C(=O)c1cccc(c1)S(=O)(=O)N2 (stereo partly drawn) | ring closure, yield after HPLC ([1]; from Cc1cccc(C)c1-c1nc(NS(=O)(=O)c2cccc(C(=O)O)c2)nc(OC[C@@H](CC(C)(C)C)NC2CC3(C2)CC(C(C)(C)O)C3)c1C, 13-membered ring, HATU/DIEA, 28.7 mM, 16.0 h): 6%
6 |  |  |  |  | Cc1cccc(CC2CCOCC2)c1-c1nc2nc(c1C)OC[C@@H](CC(C)(C)C)N(Cc1ncc(N3CCOCC3)cn1)C(=O)c1cccc(c1)S(=O)(=O)N2 | ring closure, yield after HPLC ([1]; from Cc1cccc(CC2CCOCC2)c1-c1nc(NS(=O)(=O)c2cccc(C(=O)O)c2)nc(OC[C@@H](CC(C)(C)C)NCc2ncc(N3CCOCC3)cn2)c1C, 13-membered ring, CDMT/NMM, 41.0 mM, 19.0 h): 25%
7 |  |  |  |  | Cc1ccc2cc1Oc1cc(-c3c(C)cccc3C)nc(n1)NS(=O)(=O)c1cccc(c1)NC2=O | ring closure, yield after HPLC ([1]; from Cc1ccc(C(=O)O)cc1Oc1cc(-c2c(C)cccc2C)nc(NS(=O)(=O)c2cccc(N)c2)n1, 14-membered ring, HATU/DIEA, 78.0 mM, 25.0 °C, 0.083 h, 3 steps): 26%
8 |  |  |  |  | Cc1cccc(C)c1-c1nc2nc(c1C)OC[C@@H](CC(C)C)N(C1CC(OC(C)C)C1)C(=O)c1cccc(c1)S(=O)(=O)N2 (single isomer, unassigned; diastereomer 1) | ring closure, yield after HPLC ([1]; from Cc1cccc(C)c1-c1nc(NS(=O)(=O)c2cccc(C(=O)O)c2)nc(OC[C@@H](CC(C)C)NC2CC(OC(C)C)C2)c1C, 13-membered ring, HATU/DIEA, 25.0 °C, 2 steps): 9%
9 |  |  |  |  | Cc1cccc(C(C)C)c1-c1nc2nc(c1C)OC[C@@H](CC(C)(C)C)N(Cc1ncc(N3CCOCC3)cn1)C(=O)c1cccc(c1)S(=O)(=O)N2 | ring closure, yield after HPLC ([1]; from Cc1cccc(C(C)C)c1-c1nc(NS(=O)(=O)c2cccc(C(=O)O)c2)nc(OC[C@@H](CC(C)(C)C)NCc2ncc(N3CCOCC3)cn2)c1C, 13-membered ring, CDMT/NMM, 55.0 mM, 19.0 h): 18% and 11%
10 |  |  |  |  | (5M,11R)-11-(2,2-dimethylpropyl)-7-methyl-6-[2-methyl-6-(3-methylbutyl)phenyl]-12-{[5-(propan-2-yloxy)pyrimidin-2-yl]methyl}-9-oxa-2λ^6-thia-3,5,12,19-tetraazatricyclo[12.3.1.14,8] nonadeca-1(17),4(19),5,7,14(18),15-hexaene-2,2,13-trione | ring closure, yield after HPLC ([1]; 13-membered ring, CDMT/NMM, 47.4 mM): 40%
11 |  |  |  |  | Cc1cccc(CC(C)C)c1-c1nc2nc(c1C(F)(F)F)OC[C@@H](CC(C)(C)C)N(Cc1ncc(N3CCOCC3)cn1)C(=O)c1cccc(c1)S(=O)(=O)N2 | ring closure, yield after HPLC ([1]; from Cc1cccc(CC(C)C)c1-c1nc(NS(=O)(=O)c2cccc(C(=O)O)c2)nc(OC[C@@H](CC(C)(C)C)NCc2ncc(N3CCOCC3)cn2)c1C(F)(F)F, 13-membered ring, CDMT/NMM, 92.0 mM, 4.0 h): 37%
12 | +++ (+++ is >60%) | < 1 | +++ (+++ is >60%) | < 1 | CCc1c2nc(nc1-c1c(C)cccc1C)NS(=O)(=O)c1cccc(c1)C(=O)N(C1CC3(CCN(C)CC3)C1)[C@H](CC(C)C)CO2 [Compound 159, (11R)-6-(2,6-Dimethylphenyl)-7-ethyl-11-isobutyl-12-(7-methyl-7-azaspiro[3.5]nonan-2-yl)-2,2-dioxo-9-oxa-2λ^6-thia-3,5,12,19-tetrazatricyclo[12.3.1.14,8]nonadeca-1(17),4(19),5,7,14(18),15-hexaen-13-one] | 
13 | +++ (+++ is >60%) | < 1 | +++ (+++ is >60%) | < 1 | Cc1cccc(C)c1-c1nc2nc(c1OC(C)C)OC[C@@H](CC(C)C)N(C1CC3(CCN(C(=O)OC(C)(C)C)CC3)C1)C(=O)c1cccc(c1)S(=O)(=O)N2 [Compound 177] | 
14 | +++ (+++ is >60%) | < 1 | +++ (+++ is >60%) | < 1 | CC(C)C[C@@H]1COc2nc(nc(-c3ccccc3C(C)C)c2C(F)(F)F)NS(=O)(=O)c2cccc(c2)C(=O)N1 [Compound 164, (11R)-11-Isobutyl-6-(2-isopropylphenyl)-2,2-dioxo-7-(trifluoromethyl)-9-oxa-2λ^6-thia-3,5,12,19-tetrazatricyclo[12.3.1.14,8]nonadeca-1(18),4,6,8(19),14,16-hexaen-13-one] | 
15 | +++ (+++ is >60%) | < 1 | +++ (+++ is >60%) | < 1 | Cc1cccc(C)c1-c1nc2nc(c1OC(C)C)OC[C@@H](CC(C)C)N(C1CC3(CCN(C)CC3)C1)C(=O)c1cccc(c1)S(=O)(=O)N2 [Compound 176] | 
16 | + (+ is <30%) | 1 to 3 |  |  | CCc1c2nc(nc1-c1cccc(OC(C)C)c1)NS(=O)(=O)c1cccc(c1)NC(=O)c1cccc(c1)O2 [Compound 28] | 
17 | +++ (+++ is >60%) | < 1 | +++ (+++ is >60%) | < 1 | CCc1c2nc(nc1-c1c(C)cccc1C)NS(=O)(=O)c1cccc(c1)C(=O)N[C@H](CC(C)C)CO2 [Compound 190] | 
18 | +++ (+++ is >60%) | < 1 |  |  | CCc1c2nc(nc1-c1c(C)cccc1C)NS(=O)(=O)c1cccc(c1)C(=O)NCC(c1ccc(C(C)(C)C)cc1)O2 (stereo not drawn) [Compound 178] | 
19 | + (+ is <30%) |  |  |  | CCc1c2nc(nc1-c1cnccc1C)NS(=O)(=O)c1cccc(c1)NC(=O)c1cccc(c1)O2 [Compound 21] | 
